This is an account of results in ChEMBL document CHEMBL5247656, “Discovery of a Potent, Cooperative, and Selective SOS1 PROTAC ZZ151 with In Vivo Antitumor Efficacy in KRAS-Mutant Cancers” (J Med Chem, 2023).

pEC50, pIC50: −log10 of the molar value. Calls of active or inactive are those of the source. No cut-off for these calls is given here. Some results are limits rather than exact numbers.

One experiment deals with NCI-H460. In words: Antiproliferative activity against human NCI-H460 cells harboring KRAS […] mutant assessed as inhibition of cell proliferation incubated for 7 days by CellTiterGlo-3D proliferation assay. It is filed as functional, cell-based. Conditions: time 7.0 day.
The target of experiment [1] is T1, von Hippel-Lindau disease tumor suppressor/Son of sevenless homolog 1 (Homo sapiens) (UniProt Q07889+P40337). In words: PROTAC activity at VHL/SOS1 in human SW620 cells harboring KRAS G12V mutant assessed as induction of SOS1 degradation by measuring maximal efficacy at 1 to 2000 nM incubated for 24 hrs by Immunoblot analysis relative to control. It is filed as cell-based. Conditions: dose 1-2000 nM. On the technique in general: In western blotting, separated proteins are transferred to a membrane and probed.

In experiment [2] the target is T1, von Hippel-Lindau disease tumor suppressor/Son of sevenless homolog 1 (Homo sapiens). The experiment is described as follows: PROTAC activity at VHL/SOS1 in human Calu-1 cells harboring KRAS G12C mutant assessed as induction of SOS1 degradation by measuring maximal efficacy at 1 to 2000 nM incubated for 24 hrs by Immunoblot analysis relative to control. It is filed as cell-based. As to conditions: dose 1-2000 nM.

The target is the same in experiment [3]. The experiment is described as follows: PROTAC activity at VHL/SOS1 in human NCI-H358 cells harboring KRAS G12C mutant assessed as induction of SOS1 degradation at 1 uM preincubated with (R)-1-(4-(4-((1-(3-amino-5-(trifluoromethyl)phenyl)ethyl)amino)-7-methoxy-2-methylquinazolin-6-yl)piperidin-1-yl)ethanone for 4 hrs followed by compound treatment and measured after 24 hrs by Immunoblot analysis. It is filed as cell-based.

For experiment [4] the target is unchanged. In words: PROTAC activity at VHL/SOS1 in human Lovo cells harboring KRAS G13D mutant assessed as induction of SOS1 degradation by measuring maximal efficacy at 1 to 2000 nM incubated for 24 hrs by Immunoblot analysis relative to control. It is filed as cell-based. Conditions: dose 1-2000 nM.
Experiment [5] addresses von Hippel-Lindau disease tumor suppressor/Son of sevenless homolog 1 (Homo sapiens, UniProt P40337+Q07889, G12C). The experiment is described as follows: PROTAC activity at VHL/SOS1 in human MIA PaCa-2 cells harboring KRAS G12C mutant assessed as induction of SOS1 degradation incubated for 24 hrs by Immunoblot analysis. It is filed as cell-based. Conditions: pooled result: one value given for 16 cell lines, strains, targets or settings.

The target in experiment [6] is T1, von Hippel-Lindau disease tumor suppressor/Son of sevenless homolog 1 (Homo sapiens). The experiment is described as follows: PROTAC activity at VHL/SOS1 in human SW620 cells harboring KRAS G12V mutant assessed as induction of SOS1 degradation at 1 uM incubated for 8 hrs by Immunoblot analysis. It is filed as cell-based.
The target is the same in experiment [7]. The experiment is described as follows: PROTAC activity at VHL/SOS1 in human ASPC1 cells harboring KRAS G12D mutant assessed as induction of SOS1 degradation at 1 uM preincubated with MG132 for 4 hrs followed by compound treatment and measured after 24 hrs by immunoblot analysis. It is filed as cell-based.
The target is the same in experiment [8]. The experiment is described as follows: In vivo PROTAC activity at VHL/SOS1 in human SW620 cells harboring KRAS G12V mutant xenografted BALB/c nude mouse assessed as induction of SOS1 degradation at 10 to 20 mg/kg, ip administered once daily for 2 weeks by Immunoblot analysis. It is filed as functional, organism-based. Conditions: SW-620, dose 10-20 mg/kg. (Xenograft models place foreign cells or tissue in a host animal.)

Experiment [9] shares this target. In words: In vivo PROTAC activity at VHL/SOS1 in human ASPC1 cells harboring KRAS G12D mutant xenografted BALB/c nude mouse assessed as induction of SOS1 degradation administered intraperitoneally once daily for 3 weeks by immunohistochemistry analysis. It is filed as functional. Conditions: dose 10-20 mg/kg, route ip.
A further experiment has as its system MIA PaCa-2. The experiment is described as follows: Antiproliferative activity against human MIA PaCa-2 cells harboring KRAS G12C mutant assessed as inhibition of cell proliferation incubated for 7 days by CellTiterGlo-3D proliferation assay. It is filed as functional, cell-based. As to conditions: MIA PaCa-2, 168 h. Background: In ATP-based viability assays light output follows the ATP content of the culture.

Experiment [10] deals with T1, von Hippel-Lindau disease tumor suppressor/Son of sevenless homolog 1 (Homo sapiens). In words: In vivo PROTAC activity at VHL/SOS1 in human SW620 cells harboring KRAS G12V mutant xenografted BALB/c nude mouse assessed as induction of SOS1 degradation in tumor at 10 to 20 mg/kg, ip administered once daily for 2 weeks by immunohistochemistry analysis. It is filed as functional, organism-based. As to conditions: SW-620, dose 10-20 mg/kg.

Experiment [11] shares this target. The experiment is described as follows: PROTAC activity at VHL/SOS1 in human SNU-C2B cells harboring KRAS G12D mutant assessed as induction of SOS1 degradation by measuring maximal efficacy at 1 to 2000 nM incubated for 24 hrs by Immunoblot analysis relative to control. It is filed as cell-based. Conditions: dose 1-2000 nM.
The target is the same in experiment [12]. In words: PROTAC activity at VHL/SOS1 in human HCT-116 cells harboring KRAS G13D mutant assessed as induction of SOS1 degradation by measuring maximal efficacy at 1 to 2000 nM incubated for 24 hrs by Immunoblot analysis relative to control. It is filed as cell-based. As to conditions: dose 1-2000 nM.
Experiment [13] shares this target. The experiment is described as follows: PROTAC activity at VHL/SOS1 in human A549 cells harboring KRAS G12S mutant assessed as induction of SOS1 degradation by measuring maximal efficacy at 1 to 2000 nM incubated for 24 hrs by Immunoblot analysis relative to control. It is filed as cell-based. As to conditions: dose 1-2000 nM.
The target in experiment [14] is von Hippel-Lindau disease tumor suppressor/Son of sevenless homolog 1/Elongin-B/Elongin-C (Homo sapiens) (UniProt Q07889+P40337+Q15370+Q15369). The experiment is described as follows: Binding affinity to GST tagged human SOS1(564 to 1049 residues)-6his tagged human VHL (54 to 213 residues)-human ElonginC (17 to 112 residues)-human ElonginB (1 to 104 residues) expressed in Escherichia coli BL21 (DE3) cells assessed as ternary complex formation by measuring maximal HTRF signals incubated for 15 mins by HTRF analysis.

Experiment [15] has as its target T1, von Hippel-Lindau disease tumor suppressor/Son of sevenless homolog 1 (Homo sapiens). The experiment is described as follows: PROTAC activity at VHL/SOS1 in human PANC-1 cells harboring KRAS G12D mutant assessed as induction of SOS1 degradation by measuring maximal efficacy at 1 to 2000 nM incubated for 24 hrs by Immunoblot analysis relative to control. It is filed as cell-based. As to conditions: dose 1-2000 nM.

Experiment [16] has the same target. In words: PROTAC activity at VHL/SOS1 in human SW480 cells harboring KRAS G12V mutant assessed as induction of SOS1 degradation by measuring maximal efficacy at 1 to 2000 nM incubated for 24 hrs by Immunoblot analysis relative to control. As to conditions: dose 1-2000 nM. It is filed as cell-based.
Experiment [17] shares this target. In words: In vivo PROTAC activity at VHL/SOS1 in human SW620 cells harboring KRAS G12V mutant xenografted BALB/c nude mouse assessed as decrease in phosphorylated ERK expression at 10 to 20 mg/kg, ip administered once daily for 2 weeks by Immunoblot analysis. It is filed as functional, organism-based. Conditions: SW-620, dose 10-20 mg/kg.
Experiment [18] has the same target. The experiment is described as follows: PROTAC activity at VHL/SOS1 in human ASPC1 cells harboring KRAS G12D mutant assessed as induction of SOS1 degradation by measuring maximal efficacy at 1 to 2000 nM incubated for 24 hrs by Immunoblot analysis relative to control. It is filed as cell-based. Conditions: dose 1-2000 nM.
Another experiment deals with CAL-62. In words: Antiproliferative activity against human CAL-62 cells harboring KRAS G12R mutant assessed as inhibition of cell proliferation incubated for 7 days by CellTiterGlo-3D proliferation assay. It is filed as functional, cell-based. Conditions: time 7.0 day.
Experiment [19] concerns the target T1, von Hippel-Lindau disease tumor suppressor/Son of sevenless homolog 1 (Homo sapiens). The experiment is described as follows: In vivo PROTAC activity at VHL/SOS1 in human SW620 cells harboring KRAS G12V mutant xenografted BALB/c nude mouse assessed as decrease in phosphorylated ERK expression in tumor at 10 to 20 mg/kg, ip administered once daily for 2 weeks by immunohistochemistry analysis. It is filed as functional, organism-based. Conditions: SW-620, dose 10-20 mg/kg.

Experiment [20] has the same target. The experiment is described as follows: PROTAC activity at VHL/SOS1 in human MIA PaCa-2 cells harboring KRAS G12C mutant assessed as induction of SOS1 degradation by measuring maximal efficacy at 1 to 2000 nM incubated for 24 hrs by Immunoblot analysis relative to control. It is filed as cell-based. Conditions: dose 1-2000 nM.

The Emax is the greatest response seen or fitted, relative to the assay's reference. By pEC50 is commonly meant the negative decadic logarithm of the EC50, by convention in mol/L. The term pIC50 denotes the negative decadic logarithm of the IC50, by convention in mol/L. Take `COc1cc2nc(C)nc(N[C@H](C)c3cc(N)cc(C(F)(F)F)c3)c2cc1C1CCN(C(=O)CCCCCC(=O)N[C@H](C(=O)N2C[C@H](O)C[C@H]2C(=O)N[C@@H](C)c2ccc(-c3scnc3C)cc2)C(C)(C)C)CC1`: the inhibition result in the experiment with NCI-H460 and in the experiment with CAL-62 was “inactive” throughout. For the same compound, the Emax in [1], in experiment [2], in [4], in [11], in [12] and in [13] was greater than 95% each time. Moreover, the Emax in experiment [15], in experiment [16], in [18] and in experiment [20] was greater than 95% in each case. Besides, the result in [3] and in experiment [7] was inactive. Moreover, in [5], the pEC50 was 8.08. Further, the outcome in experiment [6], in experiment [8], in [10], in [14], in experiment [17] and in [19] was Active. Besides, the Activity result in experiment [9] is “Dose-Dependent Effect”. Besides, the pIC50 in the experiment with MIA PaCa-2 was 8.00.
